From ChEMBL document CHEMBL1201862, “PubChem BioAssay data set” (2004)
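Exposure lasted 48 hours, with cells grown in 96-well plates and compounds tested at five concentrations. At the GI50, growth is halved.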 The source made the active and inactive calls. No stated cut-off is given here; in the data, active = GI50 up to about 1.1 µM and inactive = higher.

Columns and labels:
Assay in all cases: DTP human tumour cell line panel, 48 h
OVCAR-8 = tested on: OVCAR-8
SK-OV-3 = tested on: SK-OV-3
SN12C = tested on: SN12C
SK-MEL-28 = tested on: SK-MEL-28
HOP-18 = tested on: HOP-18
K562 = tested on: K562
IGROV-1 = tested on: IGROV-1
EKVX = tested on: EKVX
SNB-78 = tested on: SNB-78
MDA-MB-231 = tested on: MDA-MB-231
M14 = tested on: M14
KM-20L2 = tested on: KM-20L2
KM12 = tested on: KM12
HL-60 = tested on: HL-60
LOX IMVI = tested on: LOX IMVI
DMS-114 = tested on: DMS-114
SNB-19 = tested on: SNB-19
T47D = tested on: T47D
SF-268 = tested on: SF-268
DLD-1 = tested on: DLD-1

| Compound | GI50 (OVCAR-8) | GI50 (SK-OV-3) | GI50 (SN12C) | GI50 (SK-MEL-28) | GI50 (HOP-18) | GI50 (K562) | GI50 (IGROV-1) | GI50 (EKVX) | GI50 (SNB-78) | GI50 (MDA-MB-231) | GI50 (M14) | GI50 (KM-20L2) | GI50 (KM12) | GI50 (HL-60) | GI50 (LOX IMVI) | GI50 (DMS-114) | GI50 (SNB-19) | GI50 (T47D) | GI50 (SF-268) | GI50 (DLD-1) |
| --- | --- | --- | --- | --- | --- | --- | --- | --- | --- | --- | --- | --- | --- | --- | --- | --- | --- | --- | --- | --- |
| CCOC(=O)C(CC(C)C)NC(=O)C(Cc1ccc(N(CCCl)CCCl)cc1)NC(C)=O (stereo not drawn) | 8.63 µM (inactive) | 15.8 µM (inactive) | 2.45 µM (inactive) | 5.64 µM (inactive) | 14 µM (inactive) | 4.81 µM (inactive) | 11.2 µM (inactive) | 11.1 µM (inactive) | 3.93 µM (inactive) | 5.86 µM (inactive) | 2.7 µM (inactive) | 20 µM (inactive) | 20.7 µM (inactive) | 0.426 µM (active) | 2.68 µM (inactive) | 0.849 µM (active) | 14 µM (inactive) | 2.17 µM (inactive) | 4.07 µM (inactive) | – |
| CCOC(=O)c1ccc(O)cc1 [ETHYLPARABEN] | – | > 100 µM (inactive) | – | > 100 µM (inactive) | – | > 100 µM (inactive) | > 100 µM (inactive) | > 100 µM (inactive) | > 100 µM (inactive) | – | > 100 µM (inactive) | > 100 µM (inactive) | > 100 µM (inactive) | > 100 µM (inactive) | > 100 µM (inactive) | > 100 µM (inactive) | > 100 µM (inactive) | – | > 100 µM (inactive) | > 100 µM (inactive) |
| OCC12C=CC(C1)c1ccccc12 (stereo not drawn) | > 100 µM (inactive) | > 100 µM (inactive) | > 100 µM (inactive) | > 100 µM (inactive) | > 100 µM (inactive) | > 100 µM (inactive) | > 100 µM (inactive) | – | – | – | > 100 µM (inactive) | > 100 µM (inactive) | – | > 100 µM (inactive) | > 100 µM (inactive) | > 100 µM (inactive) | > 100 µM (inactive) | – | > 100 µM (inactive) | > 100 µM (inactive) |
| CC(C)[C@@H](C)CC[C@@H](C)C1CC=C2[C@@H]3CCC4C[C@@H](O[Si](C)(C)C(C)(C)C)CC[C@]4(C)C3CC[C@@]21C (stereo partly drawn) | > 100 µM (inactive) | > 100 µM (inactive) | > 100 µM (inactive) | > 100 µM (inactive) | > 100 µM (inactive) | > 100 µM (inactive) | > 100 µM (inactive) | > 100 µM (inactive) | > 100 µM (inactive) | – | > 100 µM (inactive) | > 100 µM (inactive) | > 100 µM (inactive) | > 100 µM (inactive) | – | > 100 µM (inactive) | > 100 µM (inactive) | – | > 100 µM (inactive) | – |
| CCC1(O)C[C@H]2CN(CCCc3c([nH]c4ccccc34)[C@@](C(=O)OC)(c3cc4c(cc3OC)N(C)C3[C@](O)(C(=O)OC)[C@H](OC(C)=O)[C@]5(CC)C=CCN6CC[C@]43[C@H]65)C2)C1 (stereo partly drawn) | 2.96 µM (inactive) | 0.526 µM (active) | 3.61 µM (inactive) | 3.56 µM (inactive) | 0.146 µM (active) | 0.354 µM (active) | 2.88 µM (inactive) | 1.63 µM (inactive) | 0.543 µM (active) | – | 0.726 µM (active) | 0.298 µM (active) | 0.578 µM (active) | 0.621 µM (active) | 0.583 µM (active) | – | 1.77 µM (inactive) | – | 1.01 µM (active) | 2.22 µM (inactive) |
| COc1ccc(-c2ccc(CC(=O)O)cc2)cc1OC | > 100 µM (inactive) | > 100 µM (inactive) | > 100 µM (inactive) | > 100 µM (inactive) | – | > 100 µM (inactive) | – | > 100 µM (inactive) | > 100 µM (inactive) | – | > 100 µM (inactive) | > 100 µM (inactive) | > 100 µM (inactive) | > 100 µM (inactive) | – | > 100 µM (inactive) | > 100 µM (inactive) | – | > 100 µM (inactive) | > 100 µM (inactive) |
| Cc1ccc(N2C(=O)C(=CN)C(=O)N(c3ccc(C)cc3)C2=O)cc1 | > 100 µM (inactive) | 19.2 µM (inactive) | 51.6 µM (inactive) | > 100 µM (inactive) | > 100 µM (inactive) | > 100 µM (inactive) | 71.9 µM (inactive) | > 100 µM (inactive) | > 100 µM (inactive) | – | > 100 µM (inactive) | > 100 µM (inactive) | > 100 µM (inactive) | > 100 µM (inactive) | > 100 µM (inactive) | – | > 100 µM (inactive) | – | > 100 µM (inactive) | 46.8 µM (inactive) |
| Cc1ccc(S(=O)(=O)C2=c3ncccc3=C3C(=O)c4ccccc4C(=O)C32)cc1 (stereo not drawn) | 39.4 µM (inactive) | 38.2 µM (inactive) | > 100 µM (inactive) | > 100 µM (inactive) | > 100 µM (inactive) | > 95.9 µM (inactive) | 13.9 µM (inactive) | 69 µM (inactive) | > 100 µM (inactive) | 29.6 µM (inactive) | > 100 µM (inactive) | – | > 9.95 µM (inactive) | 99.5 µM (inactive) | > 100 µM (inactive) | 65 µM (inactive) | 48.9 µM (inactive) | 68.4 µM (inactive) | 46.7 µM (inactive) | < 0.01 µM (active) |
